test system: H1650 lung cancer cells; assay: Cell viability assay (MTT, IC50 determination); assay type: cell-based; conditions: 48 hours after drug treatment, MTT
Protocol: 89(22): p. […] H1650 lung cancer cells were plated at 150,000 cells per well in a 12 well plate. Twenty-four hours after plating, cells were treated as described with increasing concentrations of drug and control. Forty-eight hours after drug treatment, cells were treated with 100 μL of 3-(4,5-Dimethylthiazol-2-yl)-2,5-diphenyltetrazolium bromide (MTT) and incubated for 2 hours at 37 C. The MTT solution was subsequently replaced with 300 μL of n-propyl alcohol and re-aliquoted to a 96 well plates. Spectrophotometric analysis of each solution was performed using a 96 well plate reader at 600 nm in triplicate.

Compound	IC50 [µM]	IC50 (Cell Viability Data)
COC(=O)NCCCN1c2ccccc2CCc2ccc(Cl)cc21 [Example 9, Methyl (3-(3-chloro-10,11-dihydro-5H-dibenzo[b,f]azepin-5-yl)propyl)carbamate]	30	–
COc1ccc(S(=O)(=O)NCCCN2c3ccccc3Sc3ccc(Cl)cc32)cc1 [Example 11, N-(3-(2-chloro-10H-phenothiazin-10-yl)propyl)-4-methoxybenzenesulfonamide]	–	INACTIVE
O=S(=O)(NCCCN1c2ccccc2CCc2ccc(Cl)cc21)c1ccc(Cl)cc1F [Example 28, N-(3-(3-chloro-10,11-dihydro-5H-dibenzo[b,f]azepin-5-yl)propyl)-4-chloro-2-fluorobenzenesulfonamide]	–	INACTIVE

same assay, conditions: Homo sapiens, NCI-H1650, 48 hours after drug treatment, MTT

Compound	IC50 [µM]
Cc1ccc(S(=O)(=O)NCCCN2c3ccccc3Sc3ccc(Cl)cc32)cc1 [Example 3, N-(3-(2-chloro-10H-phenothiazin-10-yl)propyl)-4-methylbenzenesulfonamide]	20
COC(=O)NCCCN1c2ccccc2Sc2ccc(Cl)cc21 [Example 4, Methyl (3-(2-chloro-10H-phenothiazin-10-yl)propyl)carbamate]	10
Cc1ccc(S(=O)(=O)NCCCN2c3ccccc3CCc3ccc(Cl)cc32)cc1 [Example 8, N-(3-(3-chloro-10,11-dihydro-5H-dibenzo[b,f]azepin-5-yl)propyl)-4-methylbenzenesulfonamide]	20
CN(C)C(=O)NCCCN1c2ccccc2CCc2ccc(Cl)cc21 [Example 10, 3-(3-(3-chloro-10,11-dihydro-5H-dibenzo[b,f]azepin-5-yl)propyl)-1,1-dimethylurea]	20
O=S(=O)(NCCCN1c2ccccc2Sc2ccc(Cl)cc21)c1cc(F)cc(F)c1 [Example 13]	18
N#Cc1ccc(S(=O)(=O)NCCCN2c3ccccc3Sc3ccc(Cl)cc32)cc1 [Example 14, N-(3-(2-chloro-10H-phenothiazin-10-yl)propyl)-4-cyanobenzenesulfonamide]	40
O=S(=O)(NCCCN1c2ccccc2Sc2ccc(Cl)cc21)c1ccc(Cl)cc1 [Example 15, 4-Chloro-N-(3-(2-chloro-10H-phenothiazin-10-yl)propyl)benzenesulfonamide]	20
CN(C)C(=O)NCCCN1c2ccccc2Sc2ccc(Cl)cc21 [Example 17, 3-(3-(2-Chloro-10H-phenothiazin-10-yl)propyl)-1,1-dimethylurea]	> 50
NCCCN1c2ccccc2CCc2ccccc21 [Example 19, 3-(10,11-dihydro-5H-dibenzo[b,f]azepin-5-yl)propan-1-aminium chloride]	24.4
O=S(=O)(NCCCN1c2ccccc2CCc2ccc(Cl)cc21)c1ccc(F)cc1 [Example 20, N-(3-(3-chloro-10,11-dihydro-5H-dibenzo[b,f]azepin-5-yl)propyl)-4-fluorobenzenesulfonamide]	> 40
O=S(=O)(NCCCN1c2ccccc2CCc2ccc(Cl)cc21)c1ccc(C(F)(F)F)cc1 [Example 21, N-(3-(3-chloro-10,11-dihydro-5H-dibenzo[b,f]azepin-5-yl)propyl)-4-(trifluoromethyl)benzenesulfonamide]	15.3
N#Cc1ccc(S(=O)(=O)NCCCN2c3ccccc3CCc3ccc(Cl)cc32)cc1 [Example 22, N-(3-(3-chloro-10,11-dihydro-5H-dibenzo[b,f]azepin-5-yl)propyl)-4-cyanobenzenesulfonamide]	11.1
O=S(=O)(NCCCN1c2ccccc2CCc2ccc(Cl)cc21)c1ccc(Cl)cc1 [Example 23, 4-Chloro-N-(3-(3-chloro-10,11-dihydro-5H-dibenzo[b,f]azepin-5-yl)propyl)benzenesulfonamide]	~25
CS(=O)(=O)c1ccc(S(=O)(=O)NCCCN2c3ccccc3CCc3ccc(Cl)cc32)cc1 [Example 24, N-(3-(3-chloro-10,11-dihydro-5H-dibenzo[b,f]azepin-5-yl)propyl)-4-(methylsulfonyl)benzenesulfonamide]	15.1
COc1ccc(S(=O)(=O)NCCCN2c3ccccc3CCc3ccc(Cl)cc32)cc1 [Example 25, N-(3-(3-chloro-10,11-dihydro-5H-dibenzo[b,f]azepin-5-yl)propyl)-4-methoxybenzenesulfonamide]	< 40
O=S(=O)(NCCCN1c2ccccc2CCc2ccc(Cl)cc21)c1ccc(Cl)cc1Cl [Example 26, 2,4-dichloro-N-(3-(3-chloro-10,11-dihydro-5H-dibenzo[b,f]azepin-5-yl)propyl)benzenesulfonamide]	> 40
O=S(=O)(NCCCN1c2ccccc2CCc2ccc(Cl)cc21)c1ccc(Cl)c(Cl)c1 [Example 29, 3,4-dichloro-N-(3-(3-chloro-10,11-dihydro-5H-dibenzo[b,f]azepin-5-yl)propyl)benzenesulfonamide]	~25
O=S(=O)(NCCN1c2ccccc2CCc2ccc(Cl)cc21)c1ccc(Cl)cc1 [Example 33, 4-chloro-N-(2-(3-chloro-10,11-dihydro-5H-dibenzo[b,f]azepin-5-yl)ethyl)benzenesulfonamide]	~20

Compound	IC50 [µM]
O=S(=O)(NCCN1c2ccccc2CCc2ccc(Cl)cc21)c1ccc(C(F)(F)F)cc1 [Example 34, N-(2-(3-chloro-10,11-dihydro-5H-dibenzo[b,f]azepin-5-yl)ethyl)-4-(trifluoromethyl)benzenesulfonamide]	~20
O=S(=O)(NCCCN1c2ccccc2CCc2ccccc21)c1ccc(Cl)cc1 [Example 35, 4-chloro-N-(3-(10,11-dihydro-5H-dibenzo[b,f]azepin-5-yl)propyl)benzenesulfonamide]	~20
O=S(=O)(NCCCN1c2ccccc2CCc2ccccc21)c1ccc(C(F)(F)F)cc1 [Example 36, N-(3-(10,11-dihydro-5H-dibenzo[b,f]azepin-5-yl)propyl)-4-(trifluoromethyl)benzenesulfonamide]	~15
O=S(=O)(NCCN1c2ccccc2CCc2ccc(Cl)cc21)c1ccc(OC(F)(F)F)cc1 [Example 37, N-(2-(3-chloro-10,11-dihydro-5H-dibenzo[b,f]azepin-5-yl)ethyl)-4-(trifluoromethoxy)benzenesulfonamide]	~25
O=S(=O)(NCCCN1c2ccccc2CCc2cc(Cl)ccc21)c1ccc(C(F)(F)F)cc1 [Example 38, N-(3-(2-chloro-10,11-dihydro-5H-dibenzo[b,f]azepin-5-yl)propyl)-4-(trifluoromethyl)benzenesulfonamide]	~10
O=S(=O)(NCCCN1c2ccccc2CCc2ccc(Cl)cc21)c1cccc(C(F)(F)F)c1 [Example 39, N-(3-(3-chloro-10,11-dihydro-5H-dibenzo[b,f]azepin-5-yl)propyl)-3-trifluoromethylbenzenesulfonamide]	~10
O=[N+]([O-])c1ccc(S(=O)(=O)NCCCN2c3ccccc3CCc3ccc(Cl)cc32)cc1 [Example 40, N-(3-(3-chloro-10,11-dihydro-5H-dibenzo[b,f]azepin-5-yl)propyl)-4-nitrobenzenesulfonamide]	~15
O=S(=O)(NCCN1c2ccccc2Sc2ccc(Cl)cc21)c1ccc(C(F)(F)F)cc1 [Example 41, 4-trifluoromethyl-N-(2-(2-chloro-10H-phenothiazin-10-yl)ethyl)benzenesulfonamide]	~25
O=S(=O)(NCCN1c2ccccc2Sc2ccc(Cl)cc21)c1ccc(OC(F)(F)F)cc1 [Example 42, 4-trifluoromethoxy-N-(2-(2-chloro-10H-phenothiazin-10-yl)ethyl)benzenesulfonamide]	~25
Nc1ccc2c(c1)N(CCCNS(=O)(=O)c1ccc(C(F)(F)F)cc1)c1ccccc1CC2 [Example 43, N-(3-(3-amino-10,11-dihydro-5H-dibenzo[b,f]azepin-5-yl)propyl)-4-(trifluoromethyl)benzenesulfonamide]	~35
[N-]=[N+]=Nc1ccc2c(c1)N(CCCNS(=O)(=O)c1ccc(C(F)(F)F)cc1)c1ccccc1CC2 [Example 44, N-(3-(3-azido-10,11-dihydro-5H-dibenzo[b,f]azepin-5-yl)propyl)-4-(trifluoromethyl)benzenesfulfonamide]	~30
O=S(=O)(NCCCN1c2ccccc2CCc2ccc(Cl)cc21)c1ccccc1 [Example 45, N-(3-(3-chloro-10,11-dihydro-5H-dibenzo[b,f]azepin-5-yl)propyl)benzenesulfonamide]	~25
O=S(=O)(NCCN1c2ccccc2Sc2ccccc21)c1ccc(OC(F)(F)F)cc1 [Example 46, N-(2-(10H-phenothiazin-10-yl)ethyl)-4-trifluoromethoxybenzenesulfonamide]	~30
O=S(=O)(NCCN1c2ccccc2Sc2ccccc21)c1ccc(Cl)cc1 [Example 47, N-(2-(10H-phenothiazin-10-yl)ethyl)-4-chlorobenzenesulfonamide]	~30
O=S(=O)(NCCC=C1c2ccccc2CCc2ccccc21)c1ccc(Cl)cc1 [Example 50, 4-Chloro-N-(3-(10,11-dihydro-5H-dibenzo[a,d][7]annulen-5-ylidene)propyl)benzenesulfonamide]	~15
O=S(=O)(NCCC=C1c2ccccc2CCc2ccccc21)c1ccc(OC(F)(F)F)cc1 [Example 51, N-(3-(10,11-dihydro-5H-dibenzo[a,d][7]annulen-5-ylidene)propyl)-4-(trifluoromethoxy)benzenesulfonamide]	~20
O=S(=O)(NCCCN1c2ccc(Cl)cc2CCc2cc(Cl)ccc21)c1ccc(Cl)cc1 [Example 52, 4-Chloro-N-(3-(2,8-dichloro-10,11-dihydro-5H-dibenzo[b,f]azepin-5-yl)propyl)benzenesulfonamide]	~10
O=S(=O)(NCCCN1c2ccc(Cl)cc2CCc2cc(Cl)ccc21)c1ccc(OC(F)(F)F)cc1 [Example 53, 4-Trifluoromethoxy-N-(3-(2,8-dichloro-10,11-dihydro-5H-dibenzo[b,f]azepin-5-yl)propyl)benzenesulfonamide]	~10

— patent US9540358B2, “Tricyclic compounds as anticancer agents” (ICAHN SCHOOL OF MEDICINE AT MOUNT SINAI, priority 2011, dated 2017)
